Results taken from US10918601B2, “Spray-dried pharmaceutical compositions comprising active agent nanoparticles” (Besins Healthcare Luxembourg SARL, priority 2013, dated 2021).

Experiment: Particle size of mometasone furoate before milling, after roller milling and after spray drying
Assay type: physicochemical
Settings: before roller milling
Description: Spray Drying Conditions: Inlet temperature=110° C.; Outlet temperature=54° C.; Aspirator=100%; Pump rate=20%; Q flow=50%; Nozzle cap=1.5 mm.
Roller Milling Conditions: Mometasone Furoate—initial median size—19.7 μm. Samples are milled in 250 mL jars for 3 hours with 0.5 mm YTZ media. Particle size diameter (PSD), after 3 hours milling, is measured in water. After milling, the suspension is extracted (needle 22G) from jars and mixed according the table and procedure shown. Procedure for Preparation of the Spray Drying Suspensions: The amounts of HPMC, MCC and H2O used is based on the extracted quantity of the suspension (Table II). HPMC is added as a solution prepared in H2O. HPMC solution is added to the extracted suspension and mixed for 15 minutes. MCC (Grade PH-F20JP, 20 μm) is added and mixed for 15 minutes. Particle size diameter (PSD) is measured after spray drying by dispersing the spray-dried powder in a liquid such as isopropyl palmitate or silicone oil, which are non-solvents for the components and will not alter particle size or cause disintegration of the composite particle. Materials: Mometasone Furoate (Hovione, East Windsor, N.J.); Citric acid, anhydrous (Fisher, Hampton, N.H.); Benzalkonium chloride (Fluka, St. Louis, Mo.); Microcrystalline cellulose (AsahKasei, Glenview, Ill.); Hydroxypropylmethyl cellulose (Colorcon, Harleysville, Pa.). […]

Structure (SMILES): C[C@@H]1C[C@H]2[C@@H]3CCC4=CC(=O)C=C[C@]4(C)[C@@]3(Cl)[C@@H](O)C[C@]2(C)[C@@]1(OC(=O)c1ccco1)C(=O)CCl [Mometasone Furoate, (11β,16α)-9,21-dichloro-11-hydroxy-16-methyl-3,20-dioxopregna-1,4-dien-17-yl 2-furoate]
- initial median size: 19.7 μm
